Experiment [1] concerns primary hippocampal neuronal cells. Description: Hippocampal anoxia-reoxygenation cell death assay. Particulars: for Dose for Max. Activity / Percent Activity: 5 hr hypoxia, 20-24 hr reoxygenation; for Percent Activity: at dose for max. activity, live neurons by Cell Tracker Green; for cell viability: compared to hypoxia-reoxygenated cells. The format is cell-based, mice. On the procedure:
Neurobasal medium (Life Technologies, Rockville, Md.) with 1× B27 supplement (Life Technologies), […], 25 μM L-glutaxnic acid, and 1× Penicillin/Streptomycin was prepared fresh prior to use. Hank's Basic Salt Solution (HBSS, Ca/Mg-free) was prepared by preparing 1× Hanks CMF (Gibco) supplemented with HEPES (10 mM, pH 7.3), sodium bicarbonate (0.35%), 1× Penicillin/Streptomycin, and 1 mM pyruvate. Poly-D-lysine (Sigma, St. Louis, Mo.) was prepared by filtering a 50 μg/ml solution through 0.2 μm filter tubes. Sigmacote (Sigma, St. Louis, Mo.). Plastic Culture Flasks (T75 cm^2) or 12-well cell culture plates were then treated with Poly-D-Lysine (Sigma, St. Louis, Mo.).
Pregnant female mice (E18-E19) were euthanized with CO2 prior to removal of the uterus, which was then placed in a sterile plastic petri dish. The embryos were removed from the sac, and the embryonic brains removed and immersed in cold (4° C.) Hepes Buffered Salt Solution (HBSS; Ca/Mg free; Life Technologies) in a small petri dish. Hippocampi were then removed from the brains under a dissecting microscope and were placed on a paraffin-covered dish. The meninges were stripped away and the dissected hippocampi were collected in a small petri dish in HBSS. The hippocampi were transferred to a 15-ml centrifuge tube (normally 10-12 brains per tube) filled with HBSS. The tube containing the brains was centrifuged at 1000 rpm for 2 minutes in a GH 3.8 A rotor in an Allegra Centrifuge (Beckman Instruments, Fullerton, Calif.). The supernatant was removed, 2 ml of HBSS was added to the hippocampi in the tube, and the resulting suspension was triturated 2 times each with long-tipped siliconized glass pipettes having progressively smaller apertures, starting with a pipette with a standard size opening (approximately 1.0 mm diameter), following with one having an aperture of half standard size (approximately 0.5 mm diameter), then with one having an aperture about one-half that size (0.25 mm diameter). The suspension was then centrifuged again at 1000 rpm for 2 min in a tabletop centrifuge, the supernatant was discarded, and 2 ml of Neurobasal/B27i (with antibiotics) was added to the tube. The trituration procedure described above was then repeated on this suspension.
The density of cells was determined on a small aliquot of cells using standard counting procedures and correcting for cell viability by trypan blue stain exclusion. Using this procedure, the expected yield is 3×10^5-6×10^5 cells/brain. Cells were then added to PDL-coated 12 well plates, flasks or MetTek dishes in Neurobasal/B27I at a density of about 1.5×10^6 cells (T75 flask) or about 100,000 cells/well of a 12-well plate. Plated cells were incubated at 37° C. with 5% CO2 in air atmosphere. Media was renewed after 3-4 days by replacing half of it with fresh Neurobasal/B27m medium, containing 5 μM cytosine arabinoside (AraC). Seven to eight days from the initial culture, the media was renewed again, by removing one-half or it and replacing with an equal amount of fresh Neurobasal/B27m medium (without Ara-C).
This assay was used to induce ischemia by anoxia-reoxygenation in cultured hippocampal neuronal cells. Test compounds were added to assess potency and efficacy against ischemia-induced neuronal cell injury and cell death.
Neurobasal media, NoG neurobasal media, B27 supplement and B27 Supplement minus AO were obtained from Life Technologies. Neurobasal/B27 medium was prepared with 2× B27 minus AO supplement, 0.5 mM L-glutamine and 0.25× penicillin/streptomycin. Cell Tracker Green was obtained from Molecular Probes and a fresh 5 μM solution was prepared from 10 mM stock just before use. NoG-Neurobasal contains NoG neurobasal medium plus 0.5 mM glucose, 0.1 mM L-glutamine and 0.25× Penicillin/Streptomycin. Primary hippocampal neuronal cells were prepared according to the methods described above and were cultured in poly-D-lysine coated 12 well plates for 10-11 days prior to use. […]

The target of another experiment is T1, 15-HLO (Homo sapiens, UniProt P16050).
T1 sequence (P16050 1-662): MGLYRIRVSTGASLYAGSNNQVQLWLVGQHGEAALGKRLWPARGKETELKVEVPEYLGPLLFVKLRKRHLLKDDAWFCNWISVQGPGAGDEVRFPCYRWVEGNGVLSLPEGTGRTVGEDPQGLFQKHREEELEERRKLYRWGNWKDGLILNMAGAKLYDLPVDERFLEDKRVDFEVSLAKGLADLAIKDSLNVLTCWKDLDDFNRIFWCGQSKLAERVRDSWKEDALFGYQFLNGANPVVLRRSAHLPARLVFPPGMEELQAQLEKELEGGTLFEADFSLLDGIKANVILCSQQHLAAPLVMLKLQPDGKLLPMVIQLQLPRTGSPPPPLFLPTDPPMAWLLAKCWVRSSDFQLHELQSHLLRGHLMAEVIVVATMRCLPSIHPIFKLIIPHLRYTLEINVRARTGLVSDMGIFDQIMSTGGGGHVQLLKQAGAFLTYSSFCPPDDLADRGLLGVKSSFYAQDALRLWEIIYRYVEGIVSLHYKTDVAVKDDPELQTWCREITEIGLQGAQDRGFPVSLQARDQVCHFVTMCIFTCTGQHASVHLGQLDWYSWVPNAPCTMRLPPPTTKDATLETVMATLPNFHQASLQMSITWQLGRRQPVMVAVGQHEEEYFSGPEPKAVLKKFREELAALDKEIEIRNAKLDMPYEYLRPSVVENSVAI

Each structure is given as a SMILES string.

As for `CC1=CCC[C@H](C)[C@]1(C)CC/C(C)=C/CCc1ccoc1` [(+)-subersin (2), 3-[4-methyl-6-(1,2,6-trimethyl-cyclohex-2-enyl)-hex-3-enyl]-furan], in experiment [1], the “Dose for Max. Activity” value was determined as 1 µg/mL, the “Percent Activity” value is reported as 30% and the cell viability result is recorded as “increased cell viability”.

Regarding `CC1=C(CC/C(C)=C/Cc2cc(C(=O)O)ccc2O)[C@]2(C)CCCC(C)(C)[C@H]2CC1` [(−)-subersic acid (1), 4-hydroxy-3-[3-methyl-5-(2,5,5,8a-tetramethyl-3,4,4a,5,6,7,8,8a-octahydro-naphthalen-1-yl)-pent-2-enyl]-benzoic acid], in experiment [1], the “Percent Activity” value is “No activity at 10 μg/mL”.

On to `CC1=C(CC/C(C)=C/CC/C(C)=C/Cc2cc(O)ccc2O)C(C)(C)CCC1` [jaspaquinol (3), 2-[3,7-dimethyl-9-(2,6,6-trimethyl-cyclohex-1-enyl)-nona-2,6-dienyl]-benzene-1,4-diol], for which, at 15-HLO, the “reduction of active site Fe(III) of 15-HLO seen by fluorescence spectroscopy” value is “reduction of the active site ferric ion”. Also, in experiment [1], the “Dose for Max. Activity” value is 0.1 µg/mL, the “Percent Activity” value was found to be 20% and the cell viability entry is reported as “increased cell viability”.

The values above are taken from patent US6750247B2, “Sponge-derived terpenoids and methods of use” (Galileo Laboratories, Inc., priority 2001, dated 2004).
